Assays:
[1] = tested on: RD-ES (Ewing's sarcoma) xenografts; test: Xenograft efficacy study in mice; type: in vivo; details: RD-ES xenograft model
Excerpt: Although proliferation of SK-ES-1 and SJCRH30 cells was inhibited by MEDI-573 in vitro in the absence of exogenous IGFs, the in vivo growth of these two models was not effected by MEDI-573 treatment.
The combination treatments were tolerated as no significant body weight loss was observed (FIG. 17B).
For in vivo efficacy studies, five million sarcoma cells in 50% matrigel were inoculated subcutaneously into each female athymic nude mice. When tumors reach approximately 150-200 mm^3, mice were randomly assigned into groups (10 mice per group). MEDI-573 was administrated intraperitoneally twice per week at indicated doses. The dose regimen for AZD2014 was oral once every day, for rapamycin was intraperitoneal injection every 3 days. Tumor volumes were measured twice weekly with calipers. Tumor growth inhibition was calculated on the last day of study relative to the initial and final mean tumor volume of the control group.

RD-ES cells = test: Cytotoxicity assay, MEDI-573 and mTOR inhibitors; type: cell-based; details: agents alone or in combination (FIG. 14)
pS6K = test: Immunoblot of cell lysates after MEDI-573, mTORi, combination; type: cell-based
Description: (§1) To examine the effect of MEDI-573, mTORi, and combination of both on IGF signaling, RD-ES, SJSA-1, and KHOS cells were treated with these agents for 4 hours. After separation of the cell lysates by gel electrophoresis, the proteins were detected by immunoblotting.

p4EBP1 = test: as above; type: cell-based; details: single agent, 4 hours
Description: as §1

pAKT = test: as above; type: cell-based; details: all 3 cell lines, 4 hours
Description: as §1

CNC(=O)c1cccc(-c2ccc3c(N4CCOC[C@@H]4C)nc(N4CCOC[C@@H]4C)nc3n2)c1 [AZD2014]
tumor growth inhibition ([1]; AZD2014 combination study (FIG. 16A)): 51% | decrease in cell viability (RD-ES cells): 55% | phosphorylation of pS6K (pS6K; RD-ES cells): inhibited phosphorylation of pS6K | phosphorylation of pS6K (pS6K; SJSA-1 or KHOS cells): did not inhibit phosphorylation of pS6K

CO[C@H]1C[C@@H]2CC[C@@H](C)[C@@](O)(O2)C(=O)C(=O)N2CCCC[C@H]2C(=O)O[C@H]([C@H](C)C[C@@H]2CC[C@@H](O)[C@H](OC)C2)CC(=O)[C@H](C)/C=C(\C)[C@@H](O)[C@@H](OC)C(=O)[C@H](C)C[C@H](C)/C=C/C=C/C=C/1C [rapamycin]
tumor growth inhibition ([1]; rapamycin combination study (FIG. 17A)): 44% | decrease in cell viability (RD-ES cells): 34% | phosphorylation of 4EBP1 (p4EBP1): did not have effect | phosphorylation of AKT (pAKT): induced phosphorylation of AKT | pS6K (pS6K; all 3 cell lines (RD-ES, SJSA-1, KHOS), 4 hours): completely inhibited pS6K

From patent US20160324962A1, “COMPOSITIONS AND METHODS FOR TREATING SARCOMA” (MEDIMMUNE, LLC, priority 2013, published 2016)
